Here are results for four compounds from US5747503A, “Selective inhibitors of biogenic amine transporters” (priority 1996, dated 1998).

Assay [1] has as its system [^3 H]DA uptake. In words: Synaptosomal [^3 H]DA uptake inhibition. The format is biochemical, rat. The note with it: for IC50: Table 2, nM ± SD, rat striatum synaptosomes. Here is the method: Synaptosomal uptake assays were carried out as described (Rothman et al. (1993), supra). Briefly, synaptosomes were prepared by homogenization of rat striatum (for [^3 H]DA reuptake) or whole rat brain minus cerebellum (for [^3 H]5-HT reuptake) in ice-cold 10% sucrose, using a Potter-Elvehjem homogenizer. After a 1000×g centrifugation for 10 min at 4° C., the supernatants were retained on ice. The uptake assays were initiated by the addition of 100 μl of synaptosomes to 12×75 mm polystyrene test tubes, which were prefilled with 750 μl of [^3 H]ligand (2 nM [^3 H]5-HT or 5 nM [^3 H]DA) in a Krebs-phosphate buffer (pH 7.4), which contained ascorbic acid (1 mg/ml) and pargyline (50 μM) (buffer), 100 μl of test drugs made up in buffer containing 1 mg/ml bovine serum albumin, and 50 μl of buffer. The [^3 H]5-HT reuptake experiments were conducted in the presence of 100 nM nomifensine and […] GBR12935 in order to block any possible reuptake into NE and DA nerve terminals. […] The nonspecific uptake of each [^3 H]ligand was measured by incubations in the presence of 1 μM GBR12909 ([^3 H]DA) and 10 μM fluoxetine ([^3 H]5-HT). The incubations were terminated after a 15 min ([^3 H]DA) or 30 min ([^3 H]5-HT) incubation at 25° C. by adding 4 ml of wash buffer (10 mM TRIS-HCl, pH 7.4 containing 0.9% NaCl at 25° C.), followed by rapid filtration over Whatman GF/B filters and one additional wash cycle. […] The Krebs-phosphate buffer contained 154.5 mM NaCl, 2.9 mM KCl, 1.1 mM CaCl2, 0.83 mM MgCl2 and 5 mM glucose. The tritium retained on the filters was counted, in a Taurus beta counter, after an overnight extraction into ICN Cytoscint cocktail.
(§1) Inhibition curves were fit to the two parameter logistic equation for the best-fit estimates of the IC50 using nonlinear least squares curve fitting methods as previously described (Rothman et al. (1993), supra); Jones, S. M. and Rogawski, M. A. Mol. Neuropharmacol. 2: 303-310 (1992)).
Synaptosomal uptake and ligand binding assays were conducted as described
above. Preliminary experiments were conducted to determine the doserange
Each [^3 H] ligand was displaced
by 10 concentrations of test drug. The data of two experiments were
pooled, and fit to the two parameter logistic equation for the bestfit
estimates of the IC50 reported above.

Assay [2] addresses PCP site 1. In words: [^3 H](+)-MK801 binding to PCP site 1. Also on record: species or system guinea pig. The procedure:
Large batches of frozen membranes were prepared with minor modifications of published procedures (Rothman, et al. (1989), supra). Twenty to thirty frozen guinea pig brains with cerebellum were thawed for 15 minutes and homogenized with a Polytron in ice-cold 5 mM Tris-HCl, pH 8.0 (10 ml/brain). The homogenate was centrifuged at 37,000×g for 10 minutes, and the pellet was washed by resuspension in the same volume of buffer followed by recentrifugation. The pellets were resuspended in an equal volume of 5 mM Tris-HCl, pH 8.0, and the concentration was adjusted to 50 mM by the addition of 1M Tris-HCl, pH 8.0. The homogenate was centrifuged for 10 min at 37,000×g. The pellets were then washed three times by resuspension and centrifugation using 50 mM Tris-HCl, pH 8.0. The final pellets were resuspended in the Tris-HCl buffer (0.5 ml/brain), pooled and 1 ml aliquots were distributed to microfuge tubes, which were stored at -70° for assay. […]
as §1
^a The binding assays for PCP (site 2) and PCP (site 1) were conducte
as previously reported (Rothman, R. B., et al., In: Multiple Sigma and PC
Receptor Ligands: Mechanisms for Neuromodulation and Protection 307-330
(Domino, E. F. and Kamenka, J. M., eds., 1992) using [^3 H]TCP in the
presence of (+)MK801 for site 2 and [^3 HMK801 for site 1 except that

Assay [3] concerns NMDA receptor. Briefly: NMDA-induced current in cultured hippocampal neurons, whole-cell recording. The format is cell-based, rat. The note with it: for IC50: Table 2. Here is the method:
Whole-cell recordings of NMDA-induced currents in cultured rat hippocampal neurons were carried out as described previously (Subramaniam, S., et al. Neurosci. Lett. 147: 213-216 (1992)). Hippocampal neurons grown in primary culture from 19-day-old Sprague-Dawley rat embryos were used 7-14 days after plating. The extracellular recording solution consisted of (in mM): 140 NaCl, 5 KCl, 0.1 CaCl2, and 10 HEPES (osmolality, 315-325 mOsm; pH, 7.4). Tetrodotoxin (1 μM) and strychnine (1 μM) were added to block Na+channel currents and glycine-activated Cl^- currents, respectively. Patch pipettes (2-5 M.OMEGA.) were prepared from filament-containing thin wall glass capillary tubes and filled with an intracellular solution that consisted of (in mM): 145 CsCl, 2 MgCl2, 5 HEPES, 0.1 CaCl2, and 1 EGTA (osmolality, 310 mOsm; pH, 7.4). Drugs were dissolved in recording solution and applied via a rapid gravity-fed perfusion system. Flow of the drug solutions was regulated by a microvalve operated by a programmable controller.
as §1

Assay [4] deals with extracellular dopamine in the nucleus accumbens. The note with it: literature; cited from earlier work.

“Also recorded” adds a separate entry of the source. Read-outs that look alike come from different tables or passages of the source.

Broadly, the IC50 is the concentration that gives 50% inhibition. A higher IC50 goes with lower potency. Consider `CN1[C@H](Cc2ccccc2)C[C@H]2Cc3ccccc3[C@H]21` (relative stereo) [RTI-4793-14, (2RS, 3aSR, 8aRS)-1,2,3a,8,8a-Hexahydro-2-benzyl-1-methyl-indeno[1,2-b]pyrrole], for which the “[^3 H]DA uptake inhibition in words” value in assay [1] is listed as “moderate potency”. The concentration for half-maximal inhibition (IC50) is 547 ± 20 nM in assay [1]; greater than 36000 nM in assay [2]; greater than 20000 nM in assay [2] (Table 1, [^3 H]MK801); greater than 36000 nM in assay [2] (Table 2, nM ± SD); greater than 2000 nM in assay [2] (Table 3, guinea pig membranes); 768000 nM in assay [3]. Moreover, in assay [2], the “affinity for PCP site 1 in words” value is reported as “low affinity”. Further, the “inhibition of NMDA-induced current responses in words” value in assay [3] is “low potency; also recorded: very low potency inhibitor”.
As to `C[C@]12N[C@H](Cc3ccccc31)c1ccccc12` [(+)-MK801], in assay [1], the “[^3 H]DA uptake inhibition in words” value was “negligible affinity”. Further, the IC50 in assay [1] was greater than 10000 nM; in assay [2] (Table 1, [^3 H]MK801), 4.58 ± 0.19 nM; in assay [2] (Table 2, nM ± SD), 4.58 ± 0.19 nM. Further, in assay [2], the “affinity for PCP site 1 in words” value is “high affinity”. For the same compound, the “greater potency at PCP site 1 than PCP” value in assay [2] (versus PCP) stood at 25 fold.
Consider `CNC1CC(c2ccc(Cl)c(Cl)c2)c2ccccc21` (stereo not drawn) [Indatraline], for which, in assay [1], the “[^3 H]DA uptake inhibition in words” value was “potently inhibited; also recorded: potent inhibitor” and the IC50 stood at 3.23 ± 0.45 nM. The “effect on extracellular DA levels” value in assay [4] is given as “increase extracellular DA levels”. Also, in assay [2], the IC50 is greater than 100000 nM and the “affinity for PCP site 1 in words” value was “negligible affinity”. In assay [2] (Table 2, nM ± SD), this compound showed an IC50 greater than 100000 nM. In addition, in assay [3], the “inhibition of NMDA-induced current responses in words” value is reported as “very low potency” and the concentration for half-maximal inhibition (IC50) was found to be 95000 nM.
Take `c1ccc(C2(N3CCCCC3)CCCCC2)cc1` [PCP, phencyclidine]: the IC50 in assay [1] was 347 nM; in assay [2] (Table 1, [^3 H]MK801), 117 ± 3 nM; in assay [2] (Table 2, nM ± SD), 117 ± 3 nM. Further, in assay [4], the “effect on extracellular DA levels” value is “increase extracellular DA levels”.
